Results on four compounds are retold here after ChEMBL document CHEMBL1147138 (J Med Chem, 2007).

In assay [1] the target is T1, Mu-type opioid receptor (Homo sapiens, UniProt P35372).
Description: Agonist activity at human opioid gamma receptor expressed in CHO cells assessed as stimulation of [35S]GTP-gamma-S binding
Assay [2] deals with T1, Mu-type opioid receptor. This is another data set of the same source.
Description: Agonist activity at human opioid gamma receptor expressed in CHO cells assessed as inhibition of DAGO-stimulated [35S]GTPgammaS binding
The target in assay [3] is T2, Kappa-type opioid receptor (Homo sapiens, UniProt P41145). Put plainly: biochemical. In kind it is cell-based, CHO.
Description: Displacement of [3H]U-69593 from human opioid kappa receptor expressed in CHO cells
Assay [4] deals with T2, Kappa-type opioid receptor. Format: functional, cell-based, CHO.
Description: Agonist activity at human opioid kappa receptor expressed in CHO cells assessed as stimulation of [35S]GTPgammaS binding
The target of assay [5] is T1, Mu-type opioid receptor. Put plainly: biochemical.
Description: Displacement of [3H]DAMGO from human opioid gamma receptor expressed in CHO cells
In assay [6] the target is Delta-type opioid receptor (Homo sapiens, UniProt P41143). The assay is described as follows: biochemical. In kind it is cell-based, CHO.
Description: Displacement of [3H]naltrindole from human opioid delta receptor expressed in CHO cells
Assay [7] has as its target T2, Kappa-type opioid receptor.
Description: Antagonist activity at human opioid kappa receptor expressed in CHO cells assessed as inhibition of U-50488-stimulated [35S]GTP-gamma-S binding

T2 sequence (P41145 whole entry): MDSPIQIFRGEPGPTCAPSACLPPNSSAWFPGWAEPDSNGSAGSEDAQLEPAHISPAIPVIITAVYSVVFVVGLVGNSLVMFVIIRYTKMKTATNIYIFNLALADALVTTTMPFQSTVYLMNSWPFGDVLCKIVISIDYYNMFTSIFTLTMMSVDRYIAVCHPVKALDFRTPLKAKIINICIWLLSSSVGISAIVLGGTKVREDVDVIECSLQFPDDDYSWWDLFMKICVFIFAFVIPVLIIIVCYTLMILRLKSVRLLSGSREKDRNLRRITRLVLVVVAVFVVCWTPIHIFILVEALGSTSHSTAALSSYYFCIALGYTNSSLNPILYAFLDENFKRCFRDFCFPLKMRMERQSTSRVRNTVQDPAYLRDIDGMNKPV
T1 sequence (P35372 whole entry): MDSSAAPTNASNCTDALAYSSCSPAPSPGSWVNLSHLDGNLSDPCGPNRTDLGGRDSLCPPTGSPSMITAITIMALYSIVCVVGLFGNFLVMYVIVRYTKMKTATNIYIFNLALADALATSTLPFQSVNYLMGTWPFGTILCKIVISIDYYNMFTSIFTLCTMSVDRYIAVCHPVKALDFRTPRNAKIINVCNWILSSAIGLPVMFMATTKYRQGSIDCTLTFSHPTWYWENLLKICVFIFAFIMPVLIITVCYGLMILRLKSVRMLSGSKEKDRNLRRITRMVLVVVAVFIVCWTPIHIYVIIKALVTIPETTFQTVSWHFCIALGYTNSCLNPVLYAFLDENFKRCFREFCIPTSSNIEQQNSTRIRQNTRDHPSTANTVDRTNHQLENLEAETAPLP
Sequence of Delta-type opioid receptor (P41143 whole entry): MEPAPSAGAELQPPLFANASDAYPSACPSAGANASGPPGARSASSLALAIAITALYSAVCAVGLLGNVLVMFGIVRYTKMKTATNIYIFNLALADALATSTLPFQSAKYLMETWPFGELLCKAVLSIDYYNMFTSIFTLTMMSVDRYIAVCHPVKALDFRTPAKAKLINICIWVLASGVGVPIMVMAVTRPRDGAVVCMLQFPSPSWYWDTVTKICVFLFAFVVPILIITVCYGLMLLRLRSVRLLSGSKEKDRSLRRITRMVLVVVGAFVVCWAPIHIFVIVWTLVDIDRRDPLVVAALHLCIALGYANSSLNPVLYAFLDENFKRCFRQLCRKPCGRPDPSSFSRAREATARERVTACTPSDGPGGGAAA

As to `C=CCN1CC[C@]23c4c5ccc(OC(=O)CCCCCCCCC(=O)Oc6ccc7c(c6)[C@@]68CCCCC6[C@@H](C7)N(CC6CCC6)CC8)c4O[C@H]2C(=O)CC[C@@]3(O)[C@H]1C5` (some centres undefined), the results for the EC50 in assay [1] and in assay [4] were 2 nM and 1.6 nM, respectively. The IC50 (commonly the concentration that gives 50% inhibition) in assay [2] is 25 nM. Also, the results for the Ki in assay [3], in assay [5] and in assay [6] were 0.13 nM, 0.43 nM and 39 nM, respectively.
As to `O=C(CCCCCCCCC(=O)Oc1ccc2c3c1O[C@H]1C(=O)CC[C@@]4(O)[C@@H](C2)N(CC2CC2)CC[C@]314)Oc1ccc2c(c1)[C@@]13CCCCC1[C@@H](C2)N(CC1CCC1)CC3` (some centres undefined), the EC50 (commonly the concentration needed to bring the measured effect to its halfway point) in assay [1] came out at 4.4 nM; in assay [4] it was 3.4 nM. In assay [2], this compound gave a concentration for half-maximal inhibition (IC50) of 160 nM. Moreover, the Ki – broadly, a dissociation constant, usually derived from enzyme kinetics or from competition with a known ligand – in assay [3] is 0.12 nM; in assay [5], 0.29 nM; in assay [6] it was 15 nM.
As to `O=C(CCCCCCCCC(=O)Oc1ccc2c3c1O[C@H]1[C@H](O)CC[C@@]4(O)[C@@H](C2)N(CC2CCC2)CC[C@]314)Oc1ccc2c(c1)[C@@]13CCCCC1[C@@H](C2)N(CC1CCC1)CC3` (some centres undefined), the results for the IC50 in assay [2] and in assay [7] were 18 nM and 600 nM, respectively. For the same compound, the values for the Ki in assay [3], in assay [5] and in assay [6] were 0.34 nM, 0.46 nM and 28 nM, respectively. The EC50 in assay [4] came to 3.2 nM.
For the compound `O=C(O)CCCCCCCCC(=O)Oc1ccc2c(c1)[C@@]13CCCCC1[C@@H](C2)N(CC1CCC1)CC3` (some centres undefined), the EC50 in assay [4] was determined as 28 nM.
